Experimental data taken from patent publication US20220242905A1, “MODIFIED PEPTIDES AND THEIR USE” (UNIVERSITE DE MONTPELLIER, priority 2018, published 2022).
Values after ≈ are worked out from the molar mass of the structure shown.

Legend:
Hemolytic activity = assay type: cell-based, Human; conditions: human, human red blood cell suspension; hRBCs, 1 h at 37° C.; read-out: HD50, dose required to lyse 50% of the red blood cells
Protocol: Procedure for measurements of hemolytic activity: Human red blood cells (hRBCs) were washed multiple times with phosphate-buffered saline (PBS) until a clear supernatant was obtained. The hRBCs suspension was made in PBS with a Packed Cell Volume of 5%, Two-fold serial dilutions (50 μL) of oligomers in sterile water (pH adjusted between 7.4 and 7.7 with HCl and NaOH solutions) were mixed with hRBCs suspension (50 μL) in clear polystyrene optical-bottom 96-well plates which were filmed and incubated for 1 h at 37° C. A 1/1 vv hRBCs solution/PBS mixture was used a negative control and a 1/1 vv hRBCs solution/1% (TRIS 50 mM pH=8.0+1% SDS) mixture was used a positive control for 100% hemolysis. The mixture was then centrifuged at 1500 g for 10 min at 5° C. Next, 50 μL of the supernatant was transferred into a second plate, and the absorbance was read at 490 nm using a BioRad iMark plate reader. The hemolysis percentage was calculated by the formula % hemolysis=[Absorbance (sample)−Absorbance (negative control)]/[Absorbance (positive control)−Absorbance (negative control)]×100%. Each assay was performed in a double duplicate. Hemolytic activity was determined or estimated with the Hemolytic Concentration leading to 50% of lysis of hRBCs (HC50).

[1] = test system: Escherichia coli ATCC8739; assay type: cell-based; conditions: for Minimal inhibitory concentration (MIC) E. coli ATCC8739: ATCC8739, 24 h; for Minimal bactericidal concentration (MBC) E. coli ATCC8739: value in bracket, 24 h at 37° C.
Protocol: (§1) Minimal inhibitory concentration (MIC) values and minimal bactericidal concentration (MBCs) values for ATC-peptides 1-9 were determined against both Gram-positive (Bacillus subtilis, Staphylococcus aureus, Enterococcus faecalis) and Gram negative (Escherichia coli, Pseudomonas aeruginosa) bacteria as well as a yeast (Candida albicans). Experiments were conducted in triplicate. For B. subtilis, compounds were tested against vegetative cells and spores, which are particularly resistant to the action of antimicrobial agents. MIC and MBCs values are shown Table 12. In addition, haemolytic properties of 1-9 were tested.
(§2) the antimicrobial performances of oligomers antimicrobial activity were determined on three Gram positive strains (Bacillus subtilis ATCC6633, Staphylococcus aureus ATCC6538 and Enterococcus faecalis ATCC29121), two Gram negative strains (Escherichia coli ATCC8739 and Pseudomonas aeruginosa ATCC9027) and one fungal strain (Candida albicans ATCC10231). Each bacterial strain was allowed to grow overnight on Trypto-Caseine-Soja agar (TSA, Difco) at 37° C., C. albicans was allowed to grow 48 h on a sabouraud medium (Difco) at 20-25° C. A fresh suspension at 10^8 CFU·mL^−1 was then prepared by inoculating the micro-organisms in a Tryptone-Sel solution. Concentration was monitored by measuring transmitted light at 620 nm or with the Mac Farland turbidity standard (Mac Farland=0.5≈10^8 CFU·mL^−1). Each suspension was then diluted in a doubly strong Mueller-Hinton (MH, Difco) broth to […]. Two-fold serial dilutions (100 μL) of oligomers in sterile water (pH adjusted between 7.4 and 7.7 with HCl and NaOH solutions) were mixed with microbial inoculum (100 μL) in NUNC sterile clear polystyrene flat-bottom 96-well plates. A 1/1 v/v oligomer solution/water mixture was used a negative control and a 1/1 vv water/microbial inoculum mixture was used a positive control. Plates were then incubated 24 h at 37° C. for bacteria and 48 h at 25° C. for C. albicans. Minimum Inhibitory Concentration (MIC) was determined as the lowest concentration inhibiting the growth of each micro-organism. […] Minimum Bactericidal Concentration (MBC) was determined as the lowest concentration that prevent the growth of more than one colony. Each assay was performed in a triple duplicate for each strain.

[2] = test system: Bacillus subtilis ATCC6633; assay type: cell-based; conditions: for Minimal inhibitory concentration (MIC) B. subtilis ATCC6633: ATCC6633, 24 h; for Minimal bactericidal concentration (MBC) B. subtilis ATCC6633: value in bracket, 24 h at 37° C.
Protocol: as §1, §2

[3] = test system: Candida albicans ATCC10231; assay type: cell-based; conditions: for Minimal inhibitory concentration (MIC) C. albicans ATCC10231: ATCC10231, 48 h; for Minimal bactericidal concentration (MBC) C. albicans ATCC10231: value in bracket, 48 h at 25° C.
Protocol: as §1, §2

[4] = test system: Staphylococcus aureus ATCC6538; assay type: cell-based; conditions: for Minimal inhibitory concentration (MIC) S. aureus ATCC6538: ATCC6538, 24 h; for Minimal bactericidal concentration (MBC) S. aureus ATCC6538: value in bracket, 24 h at 37° C.
Protocol: as §1, §2

[5] = test system: Pseudomonas aeruginosa ATCC9027; assay type: cell-based; conditions: for Minimal inhibitory concentration (MIC) P. aeruginosa ATCC9027: ATCC9027, 24 h; for Minimal bactericidal concentration (MBC) P. aeruginosa ATCC9027: value in bracket, 24 h at 37° C.
Protocol: as §1, §2

[6] = test system: Enterococcus faecalis ATCC29121; assay type: cell-based; conditions: for Minimal inhibitory concentration (MIC) E. faecalis ATCC29121: ATCC29121, 24 h; for Minimal bactericidal concentration (MBC) E. faecalis ATCC29121: value in bracket, 24 h at 37° C.
Protocol: as §1, §2

Row | SMILES | Minimal inhibitory concentration (MIC) E. coli ATCC8739 [1] [µM] | Minimal inhibitory concentration (MIC) B. subtilis ATCC6633 [2] [µM] | Minimal inhibitory concentration (MIC) C. albicans ATCC10231 [3] [µM] | Minimal inhibitory concentration (MIC) S. aureus ATCC6538 [4] [µM] | Minimal inhibitory concentration (MIC) P. aeruginosa ATCC9027 [5] [µM] | Minimal inhibitory concentration (MIC) E. faecalis ATCC29121 [6] [µM] | HC50 at 1 h (Hemolytic activity) [µM] | Minimal bactericidal concentration (MBC) E. coli ATCC8739 [1] | Minimal bactericidal concentration (MBC) B. subtilis ATCC6633 [2] | Minimal bactericidal concentration (MBC) C. albicans ATCC10231 [3] | Minimal bactericidal concentration (MBC) S. aureus ATCC6538 [4] | Minimal bactericidal concentration (MBC) P. aeruginosa ATCC9027 [5] | Minimal bactericidal concentration (MBC) E. faecalis ATCC29121 [6]
1 | CC(=O)N[C@@H](CCCCN)c1nc(C)sc1C(=O)N[C@@H](C)c1nc(CCCCN)sc1C(=O)N[C@@H](C)c1nc(C)sc1C(=O)N[C@@H](CCCCN)c1nc(C)sc1C(=O)N[C@@H](C)c1nc(CCCCN)sc1C(=O)N[C@@H](C)c1nc(C)sc1C(=O)N[C@@H](CCCCN)c1nc(C)sc1C(=O)N[C@@H](C)c1nc(CCCCN)sc1C(=O)N[C@@H](C)c1nc(C)sc1C(N)=O [Oligomer 3] | 5.2 (≈ 9.96 µg/mL) | 0.8 (≈ 1.53 µg/mL) | 10.4 (≈ 19.9 µg/mL) | >150 | 42 (≈ 80.5 µg/mL) | >150 | > 100 | (7.3) μM | (0.8) μM | (10.4) μM | (>150) μM | (83) μM | (>150) μM
2 | CC(=O)N[C@@H](CCCCN)c1nc(C)sc1C(=O)N[C@@H](C)c1nc(CCCCN)sc1C(=O)N[C@@H](C)c1nc(C)sc1C(N)=O [Oligomer 1] | >150 | >150 | >150 | >150 | >150 | >150 | > 100 |  |  |  |  |  | 
3 | CC(=O)N[C@@H](CCCCN)c1nc(C)sc1C(=O)N[C@@H](C)c1nc(CCCCN)sc1C(=O)N[C@@H](C)c1nc(C)sc1C(=O)N[C@@H](CCCCN)c1nc(C)sc1C(=O)N[C@@H](C)c1nc(CCCCN)sc1C(=O)N[C@@H](C)c1nc(C)sc1C(N)=O [Oligomer 2] | >150 | 30 (≈ 38.9 µg/mL) | 62.5 (≈ 81 µg/mL) | >150 | >150 | >150 | > 100 |  |  |  |  |  | 

Now from value to compound, other results behind:

Row | Minimal inhibitory concentration (MIC) E. coli ATCC8739 [1] [µM] | Minimal inhibitory concentration (MIC) B. subtilis ATCC6633 [2] [µM] | Minimal inhibitory concentration (MIC) C. albicans ATCC10231 [3] [µM] | Minimal inhibitory concentration (MIC) S. aureus ATCC6538 [4] [µM] | Minimal inhibitory concentration (MIC) P. aeruginosa ATCC9027 [5] [µM] | Minimal inhibitory concentration (MIC) E. faecalis ATCC29121 [6] [µM] | SMILES | HC50 at 1 h (Hemolytic activity) [µM] | Minimal bactericidal concentration (MBC) E. coli ATCC8739 [1] | Minimal bactericidal concentration (MBC) B. subtilis ATCC6633 [2] | Minimal bactericidal concentration (MBC) C. albicans ATCC10231 [3] | Minimal bactericidal concentration (MBC) S. aureus ATCC6538 [4] | Minimal bactericidal concentration (MBC) P. aeruginosa ATCC9027 [5] | Minimal bactericidal concentration (MBC) E. faecalis ATCC29121 [6]
4 | 0.8 (≈ 1.67 µg/mL) | 0.5 (≈ 1.04 µg/mL) | 9.4 (≈ 19.6 µg/mL) | 14.6 (≈ 30.4 µg/mL) | 54 (≈ 113 µg/mL) | 100 (≈ 208 µg/mL) | CC(=O)N[C@@H](CCCNC(=N)N)c1nc(C)sc1C(=O)N[C@@H](C)c1nc(CCCNC(=N)N)sc1C(=O)N[C@@H](C)c1nc(C)sc1C(=O)N[C@@H](CCCNC(=N)N)c1nc(C)sc1C(=O)N[C@@H](C)c1nc(CCCNC(=N)N)sc1C(=O)N[C@@H](C)c1nc(C)sc1C(=O)N[C@@H](CCCNC(=N)N)c1nc(C)sc1C(=O)N[C@@H](C)c1nc(CCCNC(=N)N)sc1C(=O)N[C@@H](C)c1nc(C)sc1C(N)=O [Oligomer 8] | > 100 | (0.8) μM | (0.5) μM | (12.5) μM | (16.5) μM | (100) μM | (>100) μM
5 | 14.6 (≈ 41.9 µg/mL) | 4.2 (≈ 12.1 µg/mL) | 25 (≈ 71.8 µg/mL) | 16.7 (≈ 47.9 µg/mL) | 14.6 (≈ 41.9 µg/mL) | 10.4 (≈ 29.9 µg/mL) | CC(=O)N[C@@H](CCCCN)c1nc(C)sc1C(=O)N[C@@H](CC(C)C)c1nc(CCCCN)sc1C(=O)N[C@@H](C)c1nc(CC(C)C)sc1C(=O)N[C@@H](CCCCN)c1nc(C)sc1C(=O)N[C@@H](CC(C)C)c1nc(CCCCN)sc1C(=O)N[C@@H](C)c1nc(CC(C)C)sc1C(=O)N[C@@H](CCCCN)c1nc(C)sc1C(=O)N[C@@H](CC(C)C)c1nc(CCCCN)sc1C(=O)N[C@@H](C)c1nc(CC(C)C)sc1C(=O)N[C@@H](CCCCN)c1nc(C)sc1C(=O)N[C@@H](CC(C)C)c1nc(CCCCN)sc1C(=O)N[C@@H](C)c1nc(CC(C)C)sc1C(N)=O [Oligomer 7] | > 100 | (16.5) μM | (6.2) μM | (25) μM | (25) μM | (19) μM | (12.5) μM
6 | 1.6 (≈ 4.06 µg/mL) | 0.5 (≈ 1.27 µg/mL) | 3.7 (≈ 9.38 µg/mL) | 26 (≈ 65.9 µg/mL) | 3.9 (≈ 9.88 µg/mL) | >150 | CC(=O)N[C@@H](CCCCN)c1nc(C)sc1C(=O)N[C@@H](C)c1nc(CCCCN)sc1C(=O)N[C@@H](C)c1nc(C)sc1C(=O)N[C@@H](CCCCN)c1nc(C)sc1C(=O)N[C@@H](C)c1nc(CCCCN)sc1C(=O)N[C@@H](C)c1nc(C)sc1C(=O)N[C@@H](CCCCN)c1nc(C)sc1C(=O)N[C@@H](C)c1nc(CCCCN)sc1C(=O)N[C@@H](C)c1nc(C)sc1C(=O)N[C@@H](CCCCN)c1nc(C)sc1C(=O)N[C@@H](C)c1nc(CCCCN)sc1C(=O)N[C@@H](C)c1nc(C)sc1C(N)=O [Oligomer 4] | > 100 | (1.6) μM | (0.5) μM | (3.7) μM | (57) μM | (5.2) μM | (>150) μM
7 | 8.3 (≈ 18 µg/mL) | 1.3 (≈ 2.82 µg/mL) | 6.2 (≈ 13.4 µg/mL) | 5.2 (≈ 11.3 µg/mL) | 6.2 (≈ 13.4 µg/mL) | 6.2 (≈ 13.4 µg/mL) | CC(=O)N[C@@H](CCCCN)c1nc(C)sc1C(=O)N[C@@H](CC(C)C)c1nc(CCCCN)sc1C(=O)N[C@@H](C)c1nc(CC(C)C)sc1C(=O)N[C@@H](CCCCN)c1nc(C)sc1C(=O)N[C@@H](CC(C)C)c1nc(CCCCN)sc1C(=O)N[C@@H](C)c1nc(CC(C)C)sc1C(=O)N[C@@H](CCCCN)c1nc(C)sc1C(=O)N[C@@H](CC(C)C)c1nc(CCCCN)sc1C(=O)N[C@@H](C)c1nc(CC(C)C)sc1C(N)=O [Oligomer 6] | 23 | (8.3) μM |  | (6.2) μM | (5.2) μM | (6.2) μM | (6.2) μM
